# Publication PMC4177392, “Modulation of Cytochrome P450 Metabolism and Transport across Intestinal Epithelial Barrier by Ginger Biophenolics” (PLoS ONE, 2014)
# Key:
# [1] = target: T1, CYP1A2 (Homo sapiens, UniProt P05177); experiment: CYP1A2 inhibition in human liver microsomes (substrate phenacetin); format: in vitro ADME
# T1 construct: […]; tissue XenoTechLLC H0610
# T1 sequence (P05177 1-516): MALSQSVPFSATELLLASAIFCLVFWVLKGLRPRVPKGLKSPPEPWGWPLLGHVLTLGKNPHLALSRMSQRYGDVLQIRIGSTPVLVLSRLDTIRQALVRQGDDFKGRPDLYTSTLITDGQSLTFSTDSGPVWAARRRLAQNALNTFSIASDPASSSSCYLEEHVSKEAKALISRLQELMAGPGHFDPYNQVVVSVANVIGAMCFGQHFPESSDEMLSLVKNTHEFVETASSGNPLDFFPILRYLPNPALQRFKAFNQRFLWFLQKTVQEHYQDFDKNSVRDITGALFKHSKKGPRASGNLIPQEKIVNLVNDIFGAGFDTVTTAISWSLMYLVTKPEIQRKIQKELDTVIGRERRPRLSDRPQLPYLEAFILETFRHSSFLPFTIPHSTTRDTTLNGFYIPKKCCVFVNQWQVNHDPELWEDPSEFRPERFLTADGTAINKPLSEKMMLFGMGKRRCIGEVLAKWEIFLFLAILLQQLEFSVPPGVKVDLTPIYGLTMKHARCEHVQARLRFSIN
# Description: (§4) The highest concentration of GE used in the assay was 500 µg/mL equivalent. Stock solution for each CYP specific probe substrate was prepared in such a way that the final concentration is below the reported Km value.
# (§5) A microsome-buffer-substrate mixture (MBS mix) was prepared for each isozyme by pre-mixing appropriate volumes of sodium phosphate buffer (pH 7.4, 50 mM), microsomes and substrate (Table S2 in File S1). 179 µL of MBS mix was transferred to 96-well reaction plate to which 1 µL of inhibitor stock solution was added to achieve the final target inhibitor concentration. The reaction plate was pre-incubated for 10 min at 37°C followed by reaction initiation by addition of 20 µL of 10 mM NADPH solution. The reaction plate was then incubated at 37°C for a predetermined time period following which it was quenched with 200 µL ACN for all CYPs and 200 µL 1% formic acid in water∶ACN (70∶30) for CYP1A2. In all cases, the final incubations after addition of substrate and inhibitor contained 0.1% DMSO (v/v), and the total organic solvent (DMSO and ACN) content was less than or equal to 1% (v/v). […] The incubations were performed in singlet for individual gingerols and in duplicate for GE along with respective positive controls.
# [2] = target: T2, CYP2A6 (Homo sapiens, UniProt P11509); experiment: CYP2A6 inhibition in human liver microsomes (substrate coumarin); format: in vitro ADME
# T2 sequence (P11509 1-494): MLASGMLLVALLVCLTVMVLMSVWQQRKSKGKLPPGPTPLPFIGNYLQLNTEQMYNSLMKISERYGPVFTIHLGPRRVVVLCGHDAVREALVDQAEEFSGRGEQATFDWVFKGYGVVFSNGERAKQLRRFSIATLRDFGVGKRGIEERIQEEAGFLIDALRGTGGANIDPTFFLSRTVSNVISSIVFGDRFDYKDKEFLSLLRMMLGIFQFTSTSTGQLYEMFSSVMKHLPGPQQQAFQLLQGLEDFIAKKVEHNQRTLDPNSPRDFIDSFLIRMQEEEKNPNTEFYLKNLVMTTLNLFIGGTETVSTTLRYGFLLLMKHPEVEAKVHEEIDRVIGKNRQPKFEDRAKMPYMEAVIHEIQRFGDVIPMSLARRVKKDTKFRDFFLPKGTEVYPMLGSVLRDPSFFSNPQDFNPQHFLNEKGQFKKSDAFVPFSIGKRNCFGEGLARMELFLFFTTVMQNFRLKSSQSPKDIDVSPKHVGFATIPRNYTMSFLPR
# Description: as §4, §5
# [3] = target: T3, CYP2B6 (Homo sapiens, UniProt P20813); experiment: CYP2B6 inhibition in human liver microsomes (substrate bupropion); format: in vitro ADME
# T3 sequence (P20813 1-491): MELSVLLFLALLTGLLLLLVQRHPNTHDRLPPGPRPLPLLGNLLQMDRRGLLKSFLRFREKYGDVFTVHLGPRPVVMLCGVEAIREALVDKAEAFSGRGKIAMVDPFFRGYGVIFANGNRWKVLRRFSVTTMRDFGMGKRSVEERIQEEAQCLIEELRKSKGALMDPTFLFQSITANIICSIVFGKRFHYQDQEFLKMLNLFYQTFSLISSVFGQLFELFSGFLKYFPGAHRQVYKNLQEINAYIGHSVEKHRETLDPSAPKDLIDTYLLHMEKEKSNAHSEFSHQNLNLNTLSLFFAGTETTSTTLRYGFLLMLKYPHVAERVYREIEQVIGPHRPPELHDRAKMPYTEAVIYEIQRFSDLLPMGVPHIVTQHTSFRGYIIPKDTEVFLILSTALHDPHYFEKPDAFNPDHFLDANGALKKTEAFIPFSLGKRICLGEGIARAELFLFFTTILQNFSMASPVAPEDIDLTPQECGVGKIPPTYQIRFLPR
# Description: as §4, §5
# [4] = target: T4, CYP2C8 (Homo sapiens, UniProt P10632); experiment: CYP2C8 inhibition in human liver microsomes (substrate amodiaquine); format: in vitro ADME
# T4 sequence (P10632 1-490): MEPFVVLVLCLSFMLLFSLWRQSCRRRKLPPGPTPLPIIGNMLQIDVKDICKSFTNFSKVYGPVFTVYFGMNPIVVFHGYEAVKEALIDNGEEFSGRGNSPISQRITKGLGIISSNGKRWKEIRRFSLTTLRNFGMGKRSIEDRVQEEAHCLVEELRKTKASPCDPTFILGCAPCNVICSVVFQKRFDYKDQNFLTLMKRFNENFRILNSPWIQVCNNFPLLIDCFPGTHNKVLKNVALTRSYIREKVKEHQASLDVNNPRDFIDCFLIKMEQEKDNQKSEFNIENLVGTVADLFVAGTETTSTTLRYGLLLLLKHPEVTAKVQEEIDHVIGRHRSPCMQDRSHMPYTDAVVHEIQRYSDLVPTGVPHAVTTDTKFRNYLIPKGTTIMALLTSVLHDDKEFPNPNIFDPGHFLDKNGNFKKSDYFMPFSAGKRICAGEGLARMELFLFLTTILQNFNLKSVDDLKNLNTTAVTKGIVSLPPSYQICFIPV
# Description: as §4, §5
# [5] = target: CYP2C9 (Homo sapiens, UniProt P11712); experiment: CYP2C9 inhibition in human liver microsomes (substrate diclofenac)
# Description: (§1) Stock solution for each CYP specific probe substrate was prepared in such a way that the final concentration is below the reported Km value.
# (§2) A microsome-buffer-substrate mixture (MBS mix) was prepared for each isozyme by pre-mixing appropriate volumes of sodium phosphate buffer (pH 7.4, 50 mM), microsomes and substrate (Table S2 in File S1). 179 µL of MBS mix was transferred to 96-well reaction plate to which 1 µL of inhibitor stock solution was added to achieve the final target inhibitor concentration. The reaction plate was pre-incubated for 10 min at 37°C followed by reaction initiation by addition of 20 µL of 10 mM NADPH solution. The reaction plate was then incubated at 37°C for a predetermined time period following which it was quenched with 200 µL ACN for all CYPs and 200 µL 1% formic acid in water∶ACN (70∶30) for CYP1A2. In all cases, the final incubations after addition of substrate and inhibitor contained 0.1% DMSO (v/v), and the total organic solvent (DMSO and ACN) content was less than or equal to 1% (v/v). The details of final substrate concentration, incubation time, microsomal protein concentration in the reaction mixtures and the metabolites monitored for each isozyme tested are presented in Table S3 in File S1.
# All samples were processed using protein precipitation method and analyzed by employing positive (for all CYPs) and negative (for CYP2A6, 2C19 and 2E1) ionization mode in liquid chromatography tandem mass spectrometry (API4000, Applied Biosystems, USA). The peak area ratio of analyte to IS was used for calculations. An isocratic method comprising 5 mM ammonium formate and ACN (40∶60) with 0.05% formic acid was used for elution. For CYP2C19, a mobile phase consisting of 5 mM ammonium formate and ACN (30∶70) was used. The analytes and internal standards were retained on BDS Hypersil Phenyl (150×4.6 mm, 5 µ, Thermo, USA) column. A flow rate of 0.5 mL/min (CYP1A2), 0.6 mL/min (CYP2C19, CYP2E1), 0.7 mL/min (CYP2C9), 0.8 mL/min (CYP2A6, CYP3A), 1.0 mL/min (CYP2B6, CYP2C8, CYP2D6) was maintained using Shimadzu Prominence solvent delivery system (LC-20AD). The mobile phase was degassed using degasser (DGU-20A3), samples were loaded into autosampler (SIL-HTc) and the column temperature was maintained at 40°C by column oven (CTO-20A). Injection volumes for the samples were as follows: 5 µL (CYP1A2, CYP2D6, and CYP3A), 10 µL (CYP2B6, CYP2C8, and CYP2E1) and 20 µL (CYP2A6, CYP2C9, and CYP2C19). Data was collected and processed using Sciex Analyst 1.4.2. […]
# (§3) The data was analysed using 4PL (parameter logistic model), 3PLFB (bottom fixed), 3PLFT (top fixed), 2PL (top and bottom fixed), and the relative IC50 was with lowest standard error was further manipulation. Absolute IC50 was calculated from this relative IC50 by using the equation below: [drawing 3]
# [6] = target: CYP2C19 (Homo sapiens, UniProt P33261); experiment: CYP2C19 inhibition in human liver microsomes (substrate (S)-mephenytoin); format: in vitro ADME
# Description: as §4
# (§6) A microsome-buffer-substrate mixture (MBS mix) was prepared for each isozyme by pre-mixing appropriate volumes of sodium phosphate buffer (pH 7.4, 50 mM), microsomes and substrate (Table S2 in File S1). 179 µL of MBS mix was transferred to 96-well reaction plate to which 1 µL of inhibitor stock solution was added to achieve the final target inhibitor concentration. The reaction plate was pre-incubated for 10 min at 37°C followed by reaction initiation by addition of 20 µL of 10 mM NADPH solution. The reaction plate was then incubated at 37°C for a predetermined time period following which it was quenched with 200 µL ACN for all CYPs and 200 µL 1% formic acid in water∶ACN (70∶30) for CYP1A2. In all cases, the final incubations after addition of substrate and inhibitor contained 0.1% DMSO (v/v), and the total organic solvent (DMSO and ACN) content was less than or equal to 1% (v/v). The details of final substrate concentration, incubation time, microsomal protein concentration in the reaction mixtures and the metabolites monitored for each isozyme tested are presented in Table S3 in File S1. The incubations were performed in singlet for individual gingerols and in duplicate for GE along with respective positive controls.
# (§7) All samples were processed using protein precipitation method and analyzed by employing positive (for all CYPs) and negative (for CYP2A6, 2C19 and 2E1) ionization mode in liquid chromatography tandem mass spectrometry (API4000, Applied Biosystems, USA). The peak area ratio of analyte to IS was used for calculations. An isocratic method comprising 5 mM ammonium formate and ACN (40∶60) with 0.05% formic acid was used for elution. For CYP2C19, a mobile phase consisting of 5 mM ammonium formate and ACN (30∶70) was used. The analytes and internal standards were retained on BDS Hypersil Phenyl (150×4.6 mm, 5 µ, Thermo, USA) column. A flow rate of 0.5 mL/min (CYP1A2), 0.6 mL/min (CYP2C19, CYP2E1), 0.7 mL/min (CYP2C9), 0.8 mL/min (CYP2A6, CYP3A), 1.0 mL/min (CYP2B6, CYP2C8, CYP2D6) was maintained using Shimadzu Prominence solvent delivery system (LC-20AD). The mobile phase was degassed using degasser (DGU-20A3), samples were loaded into autosampler (SIL-HTc) and the column temperature was maintained at 40°C by column oven (CTO-20A). […]
# [7] = target: CYP2D6 (Homo sapiens, UniProt P10635); experiment: CYP2D6 inhibition in human liver microsomes (substrate dextromethorphan); format: in vitro ADME
# Description: as §4, §6, §7
# [8] = target: CYP2E1 (Homo sapiens, UniProt P05181); experiment: CYP2E1 inhibition in human liver microsomes (substrate chlorzoxazone)
# Description: as §1, §2
# All samples were processed using protein precipitation method and analyzed by employing positive (for all CYPs) and negative (for CYP2A6, 2C19 and 2E1) ionization mode in liquid chromatography tandem mass spectrometry (API4000, Applied Biosystems, USA). The peak area ratio of analyte to IS was used for calculations. An isocratic method comprising 5 mM ammonium formate and ACN (40∶60) with 0.05% formic acid was used for elution. For CYP2C19, a mobile phase consisting of 5 mM ammonium formate and ACN (30∶70) was used. The analytes and internal standards were retained on BDS Hypersil Phenyl (150×4.6 mm, 5 µ, Thermo, USA) column. A flow rate of 0.5 mL/min (CYP1A2), 0.6 mL/min (CYP2C19, CYP2E1), 0.7 mL/min (CYP2C9), 0.8 mL/min (CYP2A6, CYP3A), 1.0 mL/min (CYP2B6, CYP2C8, CYP2D6) was maintained using Shimadzu Prominence solvent delivery system (LC-20AD). The mobile phase was degassed using degasser (DGU-20A3), samples were loaded into autosampler (SIL-HTc) and the column temperature was maintained at 40°C by column oven (CTO-20A). Injection volumes for the samples were as follows: 5 µL (CYP1A2, CYP2D6, and CYP3A), 10 µL (CYP2B6, CYP2C8, and CYP2E1) and 20 µL (CYP2A6, CYP2C9, and CYP2C19). Data was collected and processed using Sciex Analyst 1.4.2. All the structures of inhibitors, substrates, metabolites and internal standards for each CYP enzyme are represented in Table S6 in File S1.
# The IC50 value was estimated from the percentage reduction in CYP activity at eleven inhibitor concentrations with respect to control.
# as §3
# [9] = target: T5, CYP3A4 (Homo sapiens, UniProt P08684); experiment: CYP3A4 inhibition in human liver microsomes (substrate midazolam); format: in vitro ADME; conditions: human liver microsomes; substrate midazolam; gingerols and GE
# Description: as §4, §6, §7
# [10] = target: T5, CYP3A4; experiment: CYP3A4 inhibition in human liver microsomes (substrate testosterone); format: in vitro ADME
# Description: as §4, §5
# [11] = humans, oral 2 g GE; as glucuronide and sulfate conjugates; cited from earlier work
# [12] = tested on: Caco-2 monolayer; experiment: Caco-2 permeability assay; conditions: 10 µM; for Intracellular (cell) accumulation: direction not given; for Papp: n = 3, mean ± SD
# [13] = human liver microsomes, substrate phenacetin, gingerols and GE
# [14] = human liver microsomes, substrate coumarin, gingerols and GE
# [15] = human liver microsomes, substrate bupropion, gingerols and GE
# [16] = human liver microsomes, substrate amodiaquine, gingerols and GE
# [17] = human liver microsomes, substrate diclofenac, gingerols and GE
# [18] = human liver microsomes, substrate (S)-mephenytoin, gingerols and GE
# [19] = human liver microsomes, substrate dextromethorphan, gingerols and GE
# [20] = human liver microsomes, substrate chlorzoxazone, gingerols and GE
# [21] = human liver microsomes, substrate testosterone, gingerols and GE
# CYP2E1, sequence (P05181 whole entry): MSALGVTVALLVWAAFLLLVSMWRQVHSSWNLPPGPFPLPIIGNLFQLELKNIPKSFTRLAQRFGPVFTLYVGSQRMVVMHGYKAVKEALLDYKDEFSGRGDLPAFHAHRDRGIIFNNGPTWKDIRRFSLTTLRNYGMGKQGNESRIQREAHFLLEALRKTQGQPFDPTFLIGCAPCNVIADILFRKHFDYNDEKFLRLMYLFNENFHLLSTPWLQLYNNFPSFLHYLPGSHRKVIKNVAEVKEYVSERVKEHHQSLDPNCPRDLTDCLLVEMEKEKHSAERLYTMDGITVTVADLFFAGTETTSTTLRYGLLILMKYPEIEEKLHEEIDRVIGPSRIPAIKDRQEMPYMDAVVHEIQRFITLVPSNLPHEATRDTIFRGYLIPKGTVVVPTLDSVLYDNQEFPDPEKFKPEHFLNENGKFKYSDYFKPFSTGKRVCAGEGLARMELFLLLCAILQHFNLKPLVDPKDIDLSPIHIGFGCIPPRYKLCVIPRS
# CYP2C9, sequence (P11712 whole entry): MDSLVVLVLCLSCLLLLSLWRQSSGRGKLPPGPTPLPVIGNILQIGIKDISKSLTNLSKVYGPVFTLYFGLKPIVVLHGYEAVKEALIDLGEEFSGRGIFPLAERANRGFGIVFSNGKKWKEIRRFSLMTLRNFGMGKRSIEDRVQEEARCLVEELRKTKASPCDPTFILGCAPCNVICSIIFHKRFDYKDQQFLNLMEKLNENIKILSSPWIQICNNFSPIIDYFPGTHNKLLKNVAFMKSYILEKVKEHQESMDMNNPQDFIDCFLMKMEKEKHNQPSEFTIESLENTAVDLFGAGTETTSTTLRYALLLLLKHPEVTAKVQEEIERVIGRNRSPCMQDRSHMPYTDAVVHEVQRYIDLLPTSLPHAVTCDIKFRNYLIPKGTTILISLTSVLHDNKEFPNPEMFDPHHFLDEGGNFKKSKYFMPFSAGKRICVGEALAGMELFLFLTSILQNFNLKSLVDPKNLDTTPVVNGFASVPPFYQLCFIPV
# CYP2C19, sequence (P33261 whole entry): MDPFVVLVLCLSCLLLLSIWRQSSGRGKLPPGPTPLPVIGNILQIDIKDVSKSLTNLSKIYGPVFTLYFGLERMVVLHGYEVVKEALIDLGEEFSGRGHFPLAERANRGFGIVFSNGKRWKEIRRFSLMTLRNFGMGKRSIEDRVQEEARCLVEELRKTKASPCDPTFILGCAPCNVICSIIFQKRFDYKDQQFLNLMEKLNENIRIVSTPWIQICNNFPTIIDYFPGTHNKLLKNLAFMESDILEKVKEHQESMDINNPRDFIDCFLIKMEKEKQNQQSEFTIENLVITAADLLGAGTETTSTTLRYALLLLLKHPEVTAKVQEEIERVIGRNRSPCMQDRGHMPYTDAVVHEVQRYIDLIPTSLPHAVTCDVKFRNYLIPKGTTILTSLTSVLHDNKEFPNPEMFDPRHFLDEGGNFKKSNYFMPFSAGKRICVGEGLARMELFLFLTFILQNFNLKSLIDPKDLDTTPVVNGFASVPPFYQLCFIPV
# CYP2D6, sequence (P10635 whole entry): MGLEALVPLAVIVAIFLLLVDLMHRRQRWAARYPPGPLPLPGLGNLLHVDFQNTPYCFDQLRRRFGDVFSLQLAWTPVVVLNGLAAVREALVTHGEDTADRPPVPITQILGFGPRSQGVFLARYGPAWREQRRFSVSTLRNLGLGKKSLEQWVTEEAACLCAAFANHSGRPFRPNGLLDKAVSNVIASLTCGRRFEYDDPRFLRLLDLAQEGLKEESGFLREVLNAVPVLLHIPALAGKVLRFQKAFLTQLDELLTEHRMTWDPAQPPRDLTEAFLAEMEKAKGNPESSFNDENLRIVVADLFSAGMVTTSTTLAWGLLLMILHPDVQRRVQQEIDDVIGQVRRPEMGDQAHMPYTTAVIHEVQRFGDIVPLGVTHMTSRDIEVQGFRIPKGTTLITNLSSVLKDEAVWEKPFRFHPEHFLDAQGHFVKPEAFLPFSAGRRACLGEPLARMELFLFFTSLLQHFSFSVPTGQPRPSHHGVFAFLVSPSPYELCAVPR
# T5 sequence (P08684 2-503): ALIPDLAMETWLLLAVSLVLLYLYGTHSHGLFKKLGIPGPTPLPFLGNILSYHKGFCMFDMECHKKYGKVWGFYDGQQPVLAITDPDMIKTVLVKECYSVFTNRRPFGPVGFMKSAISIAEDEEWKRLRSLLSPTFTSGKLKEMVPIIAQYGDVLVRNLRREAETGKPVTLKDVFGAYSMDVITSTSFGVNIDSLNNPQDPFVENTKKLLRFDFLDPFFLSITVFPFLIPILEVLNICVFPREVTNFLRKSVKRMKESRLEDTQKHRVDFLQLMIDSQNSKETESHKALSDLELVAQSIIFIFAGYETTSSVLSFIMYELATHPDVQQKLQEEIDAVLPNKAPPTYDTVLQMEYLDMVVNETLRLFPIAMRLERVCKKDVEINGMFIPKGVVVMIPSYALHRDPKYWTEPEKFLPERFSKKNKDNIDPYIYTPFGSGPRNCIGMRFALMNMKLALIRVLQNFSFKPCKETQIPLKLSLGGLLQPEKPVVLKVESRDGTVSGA
SMILES,"IC50 CYP1A2 [1, 13]","IC50 CYP2A6 [2, 14]","IC50 CYP2B6 [3, 15]","IC50 CYP2C8 [4, 16]","IC50 CYP2C9 [5, 17]","IC50 CYP2C19 [6, 18]","IC50 CYP2D6 [7, 19]","IC50 CYP2E1 [8, 20]",IC50 CYP3A4 (midazolam) [9],"IC50 CYP3A4 (testosterone) [10, 21]",Cmax / circulating concentration in humans [11],Intracellular (cell) accumulation [12],Intracellular accumulation ([12]; A→B),Papp ([12]; A→B),Intracellular accumulation ([12]; B→A),Papp ([12]; B→A),Efflux Ratio [12],further results
"CCCCC/C=C/C(=O)CCc1ccc(O)c(OC)c1 [6S, 6-shogaol]",0.7 µg/mL,23 µg/mL,1.6 µg/mL,0.8 µg/mL,0.9 µg/mL,1.1 µg/mL,24 µg/mL,21 µg/mL,18 µg/mL,2.3 µg/mL,150 ± 120 ng/mL,almost no accumulation,0%,0.071 ± 0.014 ×10⁻⁶ cm/s,1%,0.4 ± 0.2 ×10⁻⁶ cm/s,,
"CCCCCCC[C@H](O)CC(=O)CCc1ccc(O)c(OC)c1 [8G, 8-gingerol]",8.8 µg/mL,19 µg/mL,2.6 µg/mL,0.70 µg/mL,2.8 µg/mL,2.6 µg/mL,24 µg/mL,30 µg/mL,>32 µg/mL,2.6 µg/mL,230 ± 160 ng/mL,< 1%,14%,5.3 ± 0.8 ×10⁻⁶ cm/s,12%,6.9 ± 0.6 ×10⁻⁶ cm/s,1.3,
"CCCCCCCCC[C@H](O)CC(=O)CCc1ccc(O)c(OC)c1 [10G, 10-gingerol]",,,,,,,,,>35 µg/mL,,530 ± 400 ng/mL,15%,15%,0.9 ± 0.7 ×10⁻⁶ cm/s,10%,1.7 ± 0.6 ×10⁻⁶ cm/s,1.8,IC50 CYP1A2 ([1]; microsomes): > 35 µg/mL; IC50 CYP2A6 ([2]; microsomes): 34 µg/mL; IC50 CYP2B6 ([3]; microsomes): 1.5 µg/mL; IC50 CYP2C8 ([4]; microsomes): 0.7 µg/mL; IC50 CYP2C9 ([5]; microsomes): 2.6 µg/mL; IC50 CYP2C19 ([6]; microsomes): 2.3 µg/mL; IC50 CYP2D6 ([7]; microsomes): 19 µg/mL; IC50 CYP2E1 ([8]; microsomes): >35 µg/mL; IC50 CYP3A4 (testosterone) ([10]; microsomes): 2.5 µg/mL
